Assay results: PubChem BioAssay AID1963423 (Molecular Pharmacology Branch, DTP, NCI, 2024)

Tested on: 439559-082-T-J2-PDC complex spheroid growth
Experiment: Anticancer human tumor 439559-082-T-J2-PDC patient-derived colon adenocarcinoma cell line growth inhibition [Asc]
Details: for IC50: curve of first compound; for viability, T/C: stronger effect = lower value
Outline: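 Tumor cells were grown as complex spheroids with human endothelial cells (HUVEC) and human mesenchymal stem cells as stroma. Agents were tested alone and in combination, in half-log steps down from the clinical Cmax, or from 10 microM where Cmax was unknown.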
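Also: spheroids exposed to agents for 7 days starting day 3 after seeding.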
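For viability, T/C in this document: percent of DMSO vehicle control viability with 100% = vehicle.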

NC(=O)C(=Cn1cnc(-c2cc(C(F)(F)F)cc(C(F)(F)F)c2)n1)c1cncnc1 + CNC(C)C(=O)NC1CN(S(=O)(=O)c2cccc(S(=O)(=O)N3CCC4CCC(C(=O)NC(c5ccccc5)c5ccccc5)N4C(=O)C(NC(=O)C(C)NC)C3)c2)CCC2CCC(C(=O)NC(c3ccccc3)c3ccccc3)N2C1=O
IC50 (second compound 0.00316 µM): > 300 nM
IC50 (second compound 0.01 µM): > 300 nM
IC50 (second compound 0.0316 µM): > 300 nM
IC50 (second compound 0.1 µM): > 300 nM
IC50 (second compound 0.316 µM): > 300 nM
IC50 (second compound 1 µM): > 300 nM
viability, T/C (second compound 0.00316 µM, first compound 0.000949 µM): 105%
viability, T/C (second compound 0.00316 µM, first compound 0.003 µM): 101%
viability, T/C (second compound 0.00316 µM, first compound 0.00949 µM): 102%
viability, T/C (second compound 0.00316 µM, first compound 0.03 µM): 97%
viability, T/C (second compound 0.00316 µM, first compound 0.0949 µM): 98.2%
viability, T/C (second compound 0.00316 µM, first compound 0.3 µM): 79.4%
viability, T/C (second compound 0.01 µM, first compound 0.000949 µM): 101%
viability, T/C (second compound 0.01 µM, first compound 0.003 µM): 92.3%
viability, T/C (second compound 0.01 µM, first compound 0.00949 µM): 94.1%
viability, T/C (second compound 0.01 µM, first compound 0.03 µM): 98.7%
viability, T/C (second compound 0.01 µM, first compound 0.0949 µM): 102%
viability, T/C (second compound 0.01 µM, first compound 0.3 µM): 92.4%
viability, T/C (second compound 0.0316 µM, first compound 0.000949 µM): 94.1%
viability, T/C (second compound 0.0316 µM, first compound 0.003 µM): 87.3%
viability, T/C (second compound 0.0316 µM, first compound 0.00949 µM): 100%
viability, T/C (second compound 0.0316 µM, first compound 0.03 µM): 99.7%
viability, T/C (second compound 0.0316 µM, first compound 0.0949 µM): 108%
viability, T/C (second compound 0.0316 µM, first compound 0.3 µM): 84.8%
viability, T/C (second compound 0.1 µM, first compound 0.000949 µM): 96.3%
viability, T/C (second compound 0.1 µM, first compound 0.003 µM): 103%
viability, T/C (second compound 0.1 µM, first compound 0.00949 µM): 94.9%
viability, T/C (second compound 0.1 µM, first compound 0.03 µM): 99.3%
viability, T/C (second compound 0.1 µM, first compound 0.0949 µM): 101%
viability, T/C (second compound 0.1 µM, first compound 0.3 µM): 87.2%
viability, T/C (second compound 0.316 µM, first compound 0.000949 µM): 100%
viability, T/C (second compound 0.316 µM, first compound 0.003 µM): 99.2%
viability, T/C (second compound 0.316 µM, first compound 0.00949 µM): 87.2%
viability, T/C (second compound 0.316 µM, first compound 0.03 µM): 86.2%
viability, T/C (second compound 0.316 µM, first compound 0.0949 µM): 97%
viability, T/C (second compound 0.316 µM, first compound 0.3 µM): 82.8%
viability, T/C (second compound 1 µM, first compound 0.000949 µM): 79.1%
viability, T/C (second compound 1 µM, first compound 0.003 µM): 80%
viability, T/C (second compound 1 µM, first compound 0.00949 µM): 86.8%
viability, T/C (second compound 1 µM, first compound 0.03 µM): 71.4%
viability, T/C (second compound 1 µM, first compound 0.0949 µM): 88.7%
viability, T/C (second compound 1 µM, first compound 0.3 µM): 74.2%

NC1CCC(NC2CC2c2ccccc2)CC1 (centres undefined) + CNC(C)C(=O)NC1CN(S(=O)(=O)c2cccc(S(=O)(=O)N3CCC4CCC(C(=O)NC(c5ccccc5)c5ccccc5)N4C(=O)C(NC(=O)C(C)NC)C3)c2)CCC2CCC(C(=O)NC(c3ccccc3)c3ccccc3)N2C1=O
IC50 (second compound 0.00316 µM): > 100 nM
IC50 (second compound 0.01 µM): > 100 nM
IC50 (second compound 0.0316 µM): > 100 nM
IC50 (second compound 0.1 µM): > 100 nM
IC50 (second compound 0.316 µM): > 100 nM
IC50 (second compound 1 µM): > 100 nM
viability, T/C (second compound 0.00316 µM, first compound 0.000316 µM): 104%
viability, T/C (second compound 0.00316 µM, first compound 0.001 µM): 100%
viability, T/C (second compound 0.00316 µM, first compound 0.00316 µM): 110%
viability, T/C (second compound 0.00316 µM, first compound 0.01 µM): 95.7%
viability, T/C (second compound 0.00316 µM, first compound 0.0316 µM): 98.4%
viability, T/C (second compound 0.00316 µM, first compound 0.1 µM): 98.2%
viability, T/C (second compound 0.01 µM, first compound 0.000316 µM): 102%
viability, T/C (second compound 0.01 µM, first compound 0.001 µM): 95%
viability, T/C (second compound 0.01 µM, first compound 0.00316 µM): 109%
viability, T/C (second compound 0.01 µM, first compound 0.01 µM): 111%
viability, T/C (second compound 0.01 µM, first compound 0.0316 µM): 99.5%
viability, T/C (second compound 0.01 µM, first compound 0.1 µM): 107%
viability, T/C (second compound 0.0316 µM, first compound 0.000316 µM): 107%
viability, T/C (second compound 0.0316 µM, first compound 0.001 µM): 91.3%
viability, T/C (second compound 0.0316 µM, first compound 0.00316 µM): 101%
viability, T/C (second compound 0.0316 µM, first compound 0.01 µM): 109%
viability, T/C (second compound 0.0316 µM, first compound 0.0316 µM): 104%
viability, T/C (second compound 0.0316 µM, first compound 0.1 µM): 107%
viability, T/C (second compound 0.1 µM, first compound 0.000316 µM): 105%
viability, T/C (second compound 0.1 µM, first compound 0.001 µM): 101%
viability, T/C (second compound 0.1 µM, first compound 0.00316 µM): 98.1%
viability, T/C (second compound 0.1 µM, first compound 0.01 µM): 104%
viability, T/C (second compound 0.1 µM, first compound 0.0316 µM): 96.4%
viability, T/C (second compound 0.1 µM, first compound 0.1 µM): 98%
viability, T/C (second compound 0.316 µM, first compound 0.000316 µM): 95.9%
viability, T/C (second compound 0.316 µM, first compound 0.001 µM): 101%
viability, T/C (second compound 0.316 µM, first compound 0.00316 µM): 93.6%
viability, T/C (second compound 0.316 µM, first compound 0.01 µM): 100%
viability, T/C (second compound 0.316 µM, first compound 0.0316 µM): 101%
viability, T/C (second compound 0.316 µM, first compound 0.1 µM): 97%
viability, T/C (second compound 1 µM, first compound 0.000316 µM): 85.5%
viability, T/C (second compound 1 µM, first compound 0.001 µM): 85.9%
viability, T/C (second compound 1 µM, first compound 0.00316 µM): 87.4%
viability, T/C (second compound 1 µM, first compound 0.01 µM): 84.5%
viability, T/C (second compound 1 µM, first compound 0.0316 µM): 86.3%
viability, T/C (second compound 1 µM, first compound 0.1 µM): 77.3%
